This is an account of results in patent US6348477B1, “Anti-herpesvirus compounds and methods for identifying, making and using same” (Boehringer Ingelheim(Canada) Ltd., priority 1995, dated 2002).

Marks after values point to notes of the source that are not given here.

The target of the first series is T1, HSV-1 helicase-primase (Human herpesvirus 1, UniProt P10189+P10236).
T1 construct: made in house; host or cells: Sf21 insect cells triply infected with recombinant baculoviruses
T1 sequence (P10189 whole entry): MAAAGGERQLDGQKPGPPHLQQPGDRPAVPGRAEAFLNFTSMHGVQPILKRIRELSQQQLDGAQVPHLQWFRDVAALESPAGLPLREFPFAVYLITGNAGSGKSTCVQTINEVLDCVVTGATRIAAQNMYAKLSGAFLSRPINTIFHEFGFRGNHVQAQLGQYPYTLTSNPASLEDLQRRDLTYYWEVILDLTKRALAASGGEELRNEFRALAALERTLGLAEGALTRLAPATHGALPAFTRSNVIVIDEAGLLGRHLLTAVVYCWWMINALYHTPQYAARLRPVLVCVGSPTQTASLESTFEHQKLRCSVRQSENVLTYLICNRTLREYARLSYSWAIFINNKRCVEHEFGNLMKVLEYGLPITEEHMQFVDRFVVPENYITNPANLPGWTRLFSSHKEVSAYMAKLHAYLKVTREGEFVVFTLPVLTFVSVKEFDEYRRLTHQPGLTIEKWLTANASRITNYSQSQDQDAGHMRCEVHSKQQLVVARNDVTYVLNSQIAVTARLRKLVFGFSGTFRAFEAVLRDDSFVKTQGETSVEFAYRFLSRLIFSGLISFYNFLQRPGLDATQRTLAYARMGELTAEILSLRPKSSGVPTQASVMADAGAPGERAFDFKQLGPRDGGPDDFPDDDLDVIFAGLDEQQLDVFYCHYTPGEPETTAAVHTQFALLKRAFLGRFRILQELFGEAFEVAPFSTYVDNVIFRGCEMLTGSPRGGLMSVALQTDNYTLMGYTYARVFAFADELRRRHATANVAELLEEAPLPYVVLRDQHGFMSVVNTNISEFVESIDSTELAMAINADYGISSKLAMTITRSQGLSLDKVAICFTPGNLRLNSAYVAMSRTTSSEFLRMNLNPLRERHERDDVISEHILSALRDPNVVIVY
T1 sequence (P10192 whole entry, further chain): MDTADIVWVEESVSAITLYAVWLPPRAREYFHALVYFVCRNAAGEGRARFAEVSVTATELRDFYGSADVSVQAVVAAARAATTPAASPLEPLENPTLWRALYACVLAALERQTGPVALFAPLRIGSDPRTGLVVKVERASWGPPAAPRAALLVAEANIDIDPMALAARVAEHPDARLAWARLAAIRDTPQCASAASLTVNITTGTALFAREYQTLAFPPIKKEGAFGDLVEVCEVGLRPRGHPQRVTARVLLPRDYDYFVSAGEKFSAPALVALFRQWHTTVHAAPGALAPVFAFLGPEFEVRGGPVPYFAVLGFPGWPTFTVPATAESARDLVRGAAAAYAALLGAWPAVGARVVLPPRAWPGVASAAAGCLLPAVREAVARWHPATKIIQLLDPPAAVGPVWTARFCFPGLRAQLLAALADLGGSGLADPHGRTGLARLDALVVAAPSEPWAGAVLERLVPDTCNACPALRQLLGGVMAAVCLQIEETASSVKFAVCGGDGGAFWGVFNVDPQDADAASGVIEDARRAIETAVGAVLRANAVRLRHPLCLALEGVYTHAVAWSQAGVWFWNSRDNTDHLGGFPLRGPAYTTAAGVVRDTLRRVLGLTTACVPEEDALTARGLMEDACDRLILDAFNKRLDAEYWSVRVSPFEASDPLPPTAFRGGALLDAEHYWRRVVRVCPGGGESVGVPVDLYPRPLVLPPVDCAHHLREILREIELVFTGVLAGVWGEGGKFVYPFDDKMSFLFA
T1 sequence (P10236 whole entry): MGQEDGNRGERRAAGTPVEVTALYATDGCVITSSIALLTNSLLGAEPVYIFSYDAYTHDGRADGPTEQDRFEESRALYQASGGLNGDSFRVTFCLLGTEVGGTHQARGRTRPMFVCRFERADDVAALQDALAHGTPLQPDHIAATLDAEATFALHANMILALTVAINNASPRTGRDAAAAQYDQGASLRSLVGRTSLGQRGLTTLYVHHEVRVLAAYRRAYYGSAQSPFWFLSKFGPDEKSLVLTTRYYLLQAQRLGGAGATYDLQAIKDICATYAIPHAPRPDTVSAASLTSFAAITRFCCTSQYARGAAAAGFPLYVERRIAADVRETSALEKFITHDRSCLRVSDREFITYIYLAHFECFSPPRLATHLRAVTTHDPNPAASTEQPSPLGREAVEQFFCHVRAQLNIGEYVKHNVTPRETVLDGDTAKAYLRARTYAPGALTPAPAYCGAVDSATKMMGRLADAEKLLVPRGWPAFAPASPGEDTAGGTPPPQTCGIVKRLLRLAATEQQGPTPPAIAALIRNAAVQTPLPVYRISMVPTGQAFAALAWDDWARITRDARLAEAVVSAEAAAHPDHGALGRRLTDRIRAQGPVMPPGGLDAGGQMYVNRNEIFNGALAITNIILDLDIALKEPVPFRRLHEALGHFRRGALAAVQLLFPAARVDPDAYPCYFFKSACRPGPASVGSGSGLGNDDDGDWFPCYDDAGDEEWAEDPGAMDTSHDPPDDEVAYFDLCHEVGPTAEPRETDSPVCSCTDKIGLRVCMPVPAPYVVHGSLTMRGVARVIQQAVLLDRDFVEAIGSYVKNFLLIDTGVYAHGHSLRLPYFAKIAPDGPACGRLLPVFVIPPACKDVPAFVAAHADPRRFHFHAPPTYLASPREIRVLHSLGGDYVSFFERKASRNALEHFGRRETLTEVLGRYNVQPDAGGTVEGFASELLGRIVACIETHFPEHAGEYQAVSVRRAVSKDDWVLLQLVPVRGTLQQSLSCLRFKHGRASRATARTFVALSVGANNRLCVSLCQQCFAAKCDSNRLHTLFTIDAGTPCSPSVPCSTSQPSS
As to the kind of experiment: HSV-1 DNA-dependent ATPase assay (inhibition of HSV-1 helicase-primase). It counts as biochemical. The following applies: Group 1 Table 1. An excerpt:
A) HSV-1 DNA-Dependent ATP Assay (an in Vitro Assay Based on the Inhibition of HSV-1 Helicase-primase).
a) Preparation of enzyme: HSV-1 helicase-primase holoenzyme was produced in triply infected Sf21 cells using recombinant baculoviruses expressing the UL5, UL8 and UL52 helicase-primase subunits, as described by S. Dracheva et al., J. Biol. Chem. 1995, 270, 14148. The crude enzyme was purified by ammonium sulfate precipitation, Source 15Q® chromatography and Sephacryl® S-300 HR gel filtration (both purification systems can be obtained from Pharmacia Biotech Inc., Montreal, Quebec, Canada), see S. Dracheva et al., supra.
b) Assay: The DNA-dependent ATPase assay, described by J. J. Crute et al., Nucleic Acids Res. 1988, 16, 6585, was modified and used to evaluate the capability of the compounds of Group 1-formula 1 to inhibit HSV-1 helicase-primase activity. The reaction mixtures (80 μL each) contained 40 mM 4-(2-hydroxyethyl)-1-piperazineethanesulfonic acid (HEPES, pH 7.5), 10% (v/v) glycerol, 5.5 mM MgCl2, 1 mM DL-dithiothreitol (DTT), 50 μg/mL acetylated bovine serum albumin, 3.3% (v/v) DMSO, 4 mM ATP, 25 μM single-stranded M13 DNA hybridized to double-tailed 68-mer oligonucleotide and 3 μg/mL HSV-1 helicase-primase. After incubation for 20 min at 34°, formation of inorganic phosphate from hydrolysis of ATP was monitored spectrophotometrically at 650 nm using acidic ammonium molybdate/malachite green reagent, P. A. Lanzetta et al., Anal. Biochem. 1979, 100, 95. DNA-dependent ATPase activity was calculated from the net absorbance change in the presence and absence of inhibition.
The molecule `Nc1nc(-c2ccc(NC(=O)CN(CC3CCCCC3)S(=O)(=O)N3CCOCC3)cc2)cs1` [Example 107] gave a half-inhibitory concentration (IC50) of 2600 nM.

For the next series, the system named is HCMV (strain AD169). As to the kind of experiment: Inhibition of HCMV replication, plaque reduction assay (PRA, Hs-68 cells). It counts as cell-based, human cytomegalovirus. As to conditions: Human betaherpesvirus 5, AD169, Hs68; Group 1 Table 1; read-out: PRA CMV EC50. The procedure:
(§1) C) Inhibition of Human Cytomegalovirus (HCMV) replication
(§2) The effect of compounds on the replication of HCMV has been measured by using an ELISA-based assay (ELISA) and a plaque reduction assay (PRA).
(§3) Hs-68 cells ( ATCC # CRL 1635) were seeded in 12-well plates at 83,000 cells/well in 1 mL of DMEM medium (Gibco Canada Inc.) supplemented with 10% fetal bovine serum (FBS, Gibco Canada Inc.). The plates were incubated for 3 days at 37° to allow the cells to reach 80-90% confluency prior to the assay.
The medium was removed from the cells by aspiration. The cells were then infected with approximately 50 PFU of HCMV (strain AD169, ATCC VR-538) in DMEM medium supplemented with 5% inactivated FBS (assay medium). The virus was allowed to adsorb to cells for 2 h at 37°. Following viral adsorption, the medium was removed from the wells by aspiration. The cells were then incubated with or without 1 mL of appropriate concentrations of test reagent in assay medium. After 4 days of incubation at 37°, the medium was exchanged with fresh medium containing test compound and 4 days later the cells were fixed with 1% aqueous formaldehyde and stained with a 2% crystal violet solution in 20% ethanol in water. Microscopic plaques were counted using a stereomicroscope. Drug effects were calculated as a percent reduction in the number of plaques in the presence of each drug concentration compared to the number observed in the absence of drug. Ganciclovir was used as a positive control in all experiments.
The EC50 values obtained according to this assay for certain thiazolyl derivatives of this invention are listed in the following tables under the heading PRA CMV.
In the case of `Nc1nc(-c2ccc(NC(=O)CN(CC3CCCCC3)S(=O)(=O)N3CCOCC3)cc2)cs1` [Example 107], the concentration for a half-maximal effect (EC50) was found to be 12000 nM.

Test system in the next series: not given
Assay: not given
Details: not given
In turn, `Nc1nc(-c2ccc(NC(=O)CNCC3CCCCC3)cc2)cs1` [Example 3, N-{4-(2-Amino-4-thiazolyl)phenyl}-2-{(cyclohexyl-methyl)amino}acetamide] showed a melting point of 164 to 166 °C. Regarding `Nc1nc(-c2ccc(NC(=O)CN(Cc3ccccc3)C(=O)C3CCCCC3)cc2)cs1` [Example 4, N-{2-{{4-(2-Amino-4-thiazolyl)phenyl)amino}-2-oxoethyl}-N-(phenylmethyl)cyclohexanecarboxamide], the melting point lay within 214.5 to 215.5 °C. For `CCCCN(CCCC)C(=O)C(=O)Nc1ccc(-c2csc(N)n2)cc1` [Example 4, N-{4-(2-Amino-4-thiazolyl)phenyl}-N′,N′-dibutylethanediamide], the melting point is 178 to 179 °C. With `Nc1nc(-c2ccc(NC(=O)CN(Cc3ccccc3)C(=O)N3CCOCC3)cc2)cs1` [Example 6, N-{2-{{4-(2-Amino-4-thiazolyl)phenyl}amino}-2-oxoethyl}-N-(phenylmethyl)-4-morpholinecarboxamide], the melting point is 105 °C (dec.). The molecule `Nc1nc(-c2ccc(NC(=O)CN(Cc3ccccc3)S(=O)(=O)N3CCOCC3)cc2)cs1` [Example 7, N-{4-(2-Amino-4-thiazolyl)phenyl}-2-{(4-morpholinylsulfonyl)(phenylmethyl)amino}acetamide] showed a melting point of 193 to 194 °C. Turning to `Nc1nc(-c2ccc(NC(=O)CCNCc3ccccc3)cc2)cs1` [Example 8, N-{4-(2-Amino-4-thiazolyl)phenyl}-3-{(phenylmethyl)-amino}propanamide], the melting point lay in the range of 131 to 133 °C. Same read-out and setting: for `CN(C(=O)CNCc1ccccc1)c1ccc(-c2csc(N)n2)cc1` [Example 10, N-{4-(2-Amino-4-thiazolyl)phenyl}-N-methyl-2-{(phenylmethyl)amino)acetamide] the value was 160 to 162 °C; for `CC(C)(C)OC(=O)N[C@@H](Cc1ccccc1)C(=O)Nc1ccc(-c2csc(N)n2)cc1` [Example 11, tert-Butyl N-{2-{{4-(2-Amino-4-thiazolyl)phenyl}-amino}-2-oxo-1(S)-(phenylmethyl)ethyl}carbamate], 183 to 185 °C.

With `Nc1nc(-c2ccc(NC(=O)[C@H]3CCC(=O)N3Cc3ccccc3)cc2)cs1` [Example 12, N-{4-(2-Amino-4-thiazolyl)phenyl}-5-oxo-1-(phenylmethyl)-2(R)-pyrrolidinecarboxamide], the melting point lay in the range of 245 to 246 °C.

The molecule `CC(C)(C)OC(=O)N1CCC[C@H]1C(=O)Nc1ccc(-c2csc(N)n2)cc1` [Example 13, tert-Butyl 2(S)-{{{4-(2-Amino-4-thiazolyl)phenyl}-amino}carbonyl}-1-pyrrolidinecarboxylate] had a melting point of 238 to 239 °C. `Nc1nc(-c2ccc(NC(=O)[C@@H]3CCCN3C(=O)c3ccccc3)cc2)cs1` [Example 14, N-{4-(2-Amino-4-thiazolyl)phenyl}1-benzoyl-2(S)-pyrrolidinecarboxamide]: the melting point was 132 to 133 °C. On to `Nc1nc(-c2ccc(NC(=O)[C@@H]3CCCN3Cc3ccccc3)cc2)cs1` [Example 15, N-{4-(2-Amino-4-thiazolyl)phenyl}-1-(phenylmethyl)-2(S)-pyrrolidinecarboxamide], for which the melting point lay in the range of 207 to 209 °C.

In another series the test system is Hs-68 cells. As to the kind of experiment: Cytotoxicity noted in the CMV assays (table footnote). The class given is cell-based. As to conditions: asterisk in ELISA CMV column, Group 1 Table 1. The procedure: (§4) Hs-68 cells (ATCC # CRL 1635) were seeded in 96 well microtiter plates at 10,000 cells/well in 100 μL of DMEM medium (Gibco Canada Inc.) supplemented with 10% fetal bovine serum (FBS, Gibco Canada Inc.). The plates were incubated for 3 days at 37° to allow the cells to reach 80-90% confluency prior to the assay.
as §3
Regarding `CCCC(CCC)N(CC(=O)Nc1ccc(-c2csc(N)n2)cc1)C(=O)OC(C)(C)C` [Example 111], the “Cytotoxic at this concentration” value is reported as 4.0* μM.

The series is the same for the next values; noted with them: asterisk in PRA CMV, Group 1 Table 1.
In the case of `Nc1nc(-c2ccc(NC(=O)CN(CC3CCCCC3)C(=O)C3CCCC3)cc2)cs1` [Example 63], the “Cytotoxic at this concentration” value is given as >21* μM.

Consider `CCCC(CCC)N(CC(=O)Nc1ccc(-c2csc(N)n2)cc1)C(=O)C1CCCCC1` [Example 82], for which the “Cytotoxic at this concentration” value is given as 7* μM. Same read-out and setting: for `CCC(CC)C(=O)N(CC(=O)Nc1ccc(-c2csc(N)n2)cc1)Cc1ccccc1` [Example 104] the value was >18* μM. In the case of `Nc1nc(-c2ccc(NC(=O)CN(CC3CCCCC3)S(=O)(=O)N3CCOCC3)cc2)cs1` [Example 107], the “Cytotoxic at this concentration” value is on record as 12* μM. In the case of `Nc1nc(-c2ccc(NC(=O)CN(Cc3ccccc3)C(=O)Cc3cccnc3)cc2)cs1` [Example 113], the “Cytotoxic at this concentration” value was >50* μM.

For `Cc1ccccc1CN(CC(=O)Nc1ccc(-c2csc(N)n2)cc1)C(=O)Cc1ccccn1` [Example 127], the “Cytotoxic at this concentration” value is listed as 25* μM.

Another series concerns HCMV (strain AD169). As to the kind of experiment: Inhibition of HCMV replication, ELISA assay (Hs-68 cells, p28). The class given is cell-based, human cytomegalovirus. The following applies: Human betaherpesvirus 5, AD169, Hs68; Group 1 Table 1; read-out: ELISA CMV EC50. As to the method:
as §1, §2, §4
The medium was removed from wells by aspiration. The cells then were infected at a multiplicity of infection (MOI) of 0.01 PFU/cell with 50 μL of HCMV (strain AD169, ATCC VR-538) in DMEM medium supplemented with 5% heat inactivated FBS (assay medium). The virus was allowed to adsorb to cells for 2 h at 37°. Following viral adsorption, the medium was removed from the wells by aspiration. The cells were washed twice with 200 μL of assay medium to remove unabsorbed virus. The cells were then incubated with or without 100 μL of appropriate concentrations of test reagent in assay medium. After 8 days of incubation at 37°, the extent of viral replication was determined by an ELISA assay which detects the late structural protein p28 of HCMV.
Eight days after infection, the medium was aspirated from the wells. Non-specific binding sites were blocked by adding 200 μL of phosphate buffered saline containing 1% (w/v) bovine serum albumin (blocking buffer) to each well and incubating the plates for 30 min at room temperature. After removal of the blocking buffer by aspiration, the cells were fixed with 100 μL of cold ethanol-acetone solution (95:5) per well. The plates were placed at −20° for 30 min. The plates were washed 4 times with phosphate buffered saline containing 0.05% (v/v) polyoxyethylene sorbitan monolaurate (Tween 20®). Thereafter, 100 μL of mAb UL99 (Advanced Biotechnologies Inc., #13-130-100) recognizing HCMV protein p28 was added to each wells and plates were incubated for 2 h at room temperature. The plates were washed four times with 200 μL of the above-noted phosphate buffered saline/Tween-20® solution. The cells were then incubated with 100 μL of sheep anti-mouse IgGγ horseradish peroxidase conjugated for 2 h at room temperature. The plates were then washed four times with 200 μL of above-noted phosphate buffered saline/Tween-20®solution. Thereafter, 100 μL of ortho phenylenediamine dihydrochloride (OPD, Gibco Canada Inc.) solution was added to each well and the plates were agitated on a microplate shaker for 30 min in the dark. Color development was monitored at 450 nm using a microplate spectrophotometer.
The SAS program was used to calculate the % inhibition of viral replication and to generate EC50 values.
The EC50 values obtained according to this assay method for certain thiazolylphenyl derivatives of this invention are listed in the following tables under the heading ELISA CMV.
`Nc1nc(-c2ccc(NC(=O)CN(CC3CCCCC3)S(=O)(=O)N3CCOCC3)cc2)cs1` [Example 107]: the concentration giving a half-maximal response (EC50) is 1100 nM.
